# Test results as given in patent US20220202739A1, “ENDOCANNABINOID MIMETIC AND ANTI-INFLAMMATORY COMPOUND CONTAINING COMPOSITIONS, METHODS OF PREPARATION AND USES THEREOF” (priority 2019, published 2022).
# System: TRPM8
# Assay: Gene expression custom microarray, human skin fibroblasts (Example 1): TRPM8
# Type: cell-based
# Details: 24 hr; for fold induction at 10 µM: Skin fibroblast, read-out: TRPM8↑ gene expression, fold increase or decrease vs untreated cells
# From the text: Cell cultures: A human skin fibroblast cell culture (or cultures) was obtained through the Coriell Cell Repository from the National Institute on Aging Cell Repository (Camden, N.J.), or Promocell GmbH (Heidelberg, Germany). The initial culture was selected from the following cell lines: AG13066, AG11557, AG11796 or GM03651E. The cell lines were derived from donors as follows:
# Experimental phase: When the appropriate quantity of cells had been grown, they were detached as described above, but at the final step were seeded into each well of one or more 6 well dishes. Each well received 2 ml of the cell suspension so they were seeded equally. The dishes were returned to the incubator until 85-95% confluency was reached.
# It is at this stage that all wells were rinsed in PBS after aspirating the growth media. The compound(s) to be tested were previously mixed into a suitable solvent (e.g., DMSO or ethanol) that can be diluted to the desired concentration of test compound (10 μl) in the culture wells without exceeding maximum solvent concentrations and adversely effecting cell viability, and mixed with basal media. NOTE: Standard maximum levels of solvent are 0.1% for DMSO and 0.5% for ETOH. The concentration of each test compound is found in Tables 1 & 2.
# Every 2 wells on the 6 well plate served as a biological replicate for the purposes of RNA isolation and genetic expression evaluations making each 6 well dish an n=3 for the test compound(s) contained in the media. Negative control plates (no test compound(s) and only basal media) were also generated. The plates were returned to the incubator for 24 hrs.
# At the end of the 24 hr time period, the plates were removed from the incubator, the test media aspirated, and the cells rinsed with PBS. RNA isolation is performed using the BioRad Aurum Total RNA Mini Kit (Hercules, Calif.) per manufacturer's protocol; which is described, in brief, below: • Add 350 μl of lysis buffer to each well. Pipet multiple times to ensure thorough lysis. Add lysed cells to the collection tube. • Add 350 μl of 70% ETOH to the collection tube and mix thoroughly. • Pipet the generated lysate onto the spin column placed in a new 2 ml tube. Centrifuge for 30 sec between 8,000 and 10,000 g. • Place the spin column containing the now bound RNA, in a new 2 ml tube. Add 700 μl of low stringency wash solution to the spin column. Centrifuge for 30 sec between 8,000 and 10,000 g. Discard the flow through and replace spin column. • Add 80 μl of DNase I dilution to the spin column and incubate at room temperature for 15 minutes. • Add 700 μl of high stringency wash solution to the column and centrifuge for 30 sec between 8,000 and 10,000 g. Discard flow through. • Add 700 μl of low stringency wash solution to the column and centrifuge for 60 sec between 8,000 and 10,000 g. Discard flow through. • Centrifuge for 2 minutes to remove residual wash solution. • Transfer spin column to new 1.5 ml collection tube and add 80 μl of elution solution to the column. Allow 1 minute for saturation of the membrane and then centrifuge for 2 minutes to complete the RNA elution. • Quantify the quantity of RNA and store at −20 C° until use (no more than 1 month)
# The genes tested were: • Cannabinoid receptor 1 (CB1(CNR1)) • Cannabinoid receptor 2 (CB2 (CNR2)) • Fatty acid amide hydrolase (FAAH) • Monoacylglycerol lipase (MGLL, i.e., MAGL) • Peroxisome proliferator-activated receptor gamma (PPARG) • Nuclear factor kappa-light-chain-enhancer of activated B cells (NFκβ) • Interleukin 1 Alpha (IL1alpha) • Cyclooxygenase 1 (PTGS1, i.e., COX1) • Transient receptor potential cation channel subfamily A member 1 (TRPA1) • Transient receptor potential cation channel subfamily V member 1 (TRPV1) • Transient receptor potential cation channel subfamily M member 8 (TRPM8) • Hemoglobin Subunit Beta (HBB) REFERENCE GENE • Ribosomal Protein L13a (RPL13A) REFERENCE GENE […]
SMILES,fold induction at 10 µM,"TRPM8↑ gene expression, fold increase or decrease vs untreated cells (10 uM) [fold]"
"C=C(C)[C@@H]1CCC(C)=C[C@H]1c1c(O)cc(CCCCC)cc1O [CBD, cannabidiol, reference compound]",6.1,–
CCCCCCCCCCCCCCCC(=O)NCCO [N-palmitoylethanolamide],–,5.1
CC(C)[C@]12O[C@H]1[C@@H]1O[C@]13[C@]1(O[C@H]1C[C@H]1C4=C(CC[C@@]13C)C(=O)OC4)[C@@H]2O [Triptolide],47.6,–
